Measured values from patent US11098038B2, “Imidazole-based anticancer agents and derivatives thereof, and methods of making and using same” (The University of Toledo, priority 2017, dated 2021).

Legend:
Format in all cases: cell-based
[1] = test system: 786-0; assay: NCI 60 screen, 786-0; conditions: Homo sapiens, Renal
Method: (§1) The compounds synthesized were tested at the National Cancer Institute (NCI) for anti-proliferative activity in the 60 human tumor cell line assay.

[2] = test system: RPMI-8226; assay: NCI 60 screen, RPMI-8226; conditions: Homo sapiens, Leukemia
Method: as §1

[3] = test system: TK-10; assay: NCI 60 screen, TK-10; conditions: Homo sapiens, Renal
Method: as §1

[4] = test system: NCI/ADR-RES; assay: NCI 60 screen, NCI/ADR-RES; conditions: Homo sapiens, Ovarian
Method: as §1

[5] = test system: SNB-75; assay: NCI 60 screen, SNB-75; conditions: Homo sapiens, CNS
Method: as §1

[6] = test system: SK-MEL-5; assay: NCI 60 screen, SK-MEL-5; conditions: Homo sapiens, Melanoma
Method: as §1

[7] = test system: T-47D; assay: NCI 60 screen, T-47D; conditions: Homo sapiens, T47D, Breast
Method: as §1

[8] = test system: HCC-2998; assay: NCI 60 screen, HCC-2998; conditions: Homo sapiens, Colon
Method: as §1

[9] = test system: SK-MEL-2; assay: NCI 60 screen, SK-MEL-2 (second line); conditions: Homo sapiens; Melanoma, SK-MEL-2 (second of two lines so named, r38)
Method: as §1

[10] = test system: MDA-MB-468; assay: NCI 60 screen, MDA-MB-468; conditions: Homo sapiens, Breast
Method: as §1

[11] = test system: OVCAR-3; assay: NCI 60 screen, OVCAR-3; conditions: Homo sapiens, Ovarian
Method: as §1

[12] = test system: SF-539; assay: NCI 60 screen, SF-539; conditions: Homo sapiens, CNS
Method: as §1

[13] = test system: HCT15; assay: NCI 60 screen, HCT15; conditions: Homo sapiens, HCT-15, Colon
Method: as §1

[14] = test system: HL-60(TB); assay: NCI 60 screen, HL-60(TB); conditions: Homo sapiens, Leukemia
Method: as §1

[15] = test system: SK-MEL-2; assay: NCI 60 screen, SK-MEL-2 (first line); conditions: Homo sapiens; Melanoma, SK-MEL-2 (first of two lines so named, r37)
Method: as §1

[16] = test system: SF-295; assay: NCI 60 screen, SF-295; conditions: Homo sapiens, CNS
Method: as §1

[17] = test system: SN12C; assay: NCI 60 screen, SN12C; conditions: Homo sapiens, Renal
Method: as §1

[18] = test system: OVCAR-8; assay: NCI 60 screen, OVCAR-8; conditions: Homo sapiens, Ovarian
Method: as §1

[19] = test system: UO-31; assay: NCI 60 screen, UO-31; conditions: Homo sapiens, Renal
Method: as §1

[20] = test system: NCI-H23; assay: NCI 60 screen, NCI-H23; conditions: Homo sapiens, Non-Small Cell Lung
Method: as §1

[21] = test system: EKVX; assay: NCI 60 screen, EKVX; conditions: Homo sapiens, Non-Small Cell Lung
Method: as §1

[22] = test system: SK-OV-3; assay: NCI 60 screen, SK-OV-3; conditions: Homo sapiens, Ovarian
Method: as §1

[23] = test system: SR; assay: NCI 60 screen, SR; conditions: Homo sapiens, Leukemia
Method: as §1

[24] = test system: SW-620; assay: NCI 60 screen, SW-620; conditions: Homo sapiens, Colon
Method: as §1

[25] = test system: DU-145; assay: NCI 60 screen, DU-145; conditions: Homo sapiens, Prostatic
Method: as §1

[26] = test system: MDA-MB-435; assay: NCI 60 screen, MDA-MB-435; conditions: Homo sapiens, Melanoma
Method: as §1

[27] = test system: MDA-MB-231/ATCC; assay: NCI 60 screen, MDA-MB-231/ATCC; conditions: Homo sapiens, Breast
Method: as §1

[28] = test system: HOP-92; assay: NCI 60 screen, HOP-92; conditions: Homo sapiens, Non-Small Cell Lung
Method: as §1

[29] = test system: SF-268; assay: NCI 60 screen, SF-268; conditions: Homo sapiens, CNS
Method: as §1

[30] = test system: RXF393; assay: NCI 60 screen, RXF393; conditions: Homo sapiens, RXF 393, Renal
Method: as §1

[31] = test system: NCI-460; assay: NCI 60 screen, NCI-460; conditions: Homo sapiens, Non-Small Cell Lung
Method: as §1

[32] = test system: SNB-19; assay: NCI 60 screen, SNB-19; conditions: Homo sapiens, CNS
Method: as §1

[33] = test system: NCI-H522; assay: NCI 60 screen, NCI-H522; conditions: Homo sapiens, Non-Small Cell Lung
Method: as §1

[34] = test system: KM12; assay: NCI 60 screen, KM12; conditions: Homo sapiens, Colon
Method: as §1

[35] = test system: OVCAR-5; assay: NCI 60 screen, OVCAR-5; conditions: Homo sapiens, Ovarian
Method: as §1

[36] = test system: PC-3; assay: NCI 60 screen, PC-3; conditions: Homo sapiens, Prostatic
Method: as §1

[37] = test system: MALME-3M; assay: NCI 60 screen, MALME-3M; conditions: Homo sapiens, Melanoma
Method: as §1

[38] = test system: IGROV1; assay: NCI 60 screen, IGROV1; conditions: Homo sapiens, IGROV-1, Ovarian
Method: as §1

[39] = test system: HOP-62; assay: NCI 60 screen, HOP-62; conditions: Homo sapiens, Non-Small Cell Lung
Method: as §1

[40] = test system: HCT-116; assay: NCI 60 screen, HCT-116; conditions: Homo sapiens, Colon
Method: as §1

[41] = test system: UACC-62; assay: NCI 60 screen, UACC-62; conditions: Homo sapiens, Melanoma
Method: as §1

[42] = test system: A549/ATCC; assay: NCI 60 screen, A549/ATCC; conditions: Homo sapiens, Non-Small Cell Lung
Method: as §1

[43] = test system: BT-549; assay: NCI 60 screen, BT-549; conditions: Homo sapiens, Breast
Method: as §1

[44] = test system: NCI-H226; assay: NCI 60 screen, NCI-H226; conditions: Homo sapiens, Non-Small Cell Lung
Method: as §1

[45] = test system: CCRF-CEM; assay: NCI 60 screen, CCRF-CEM; conditions: Homo sapiens, Leukemia
Method: as §1

[46] = test system: K-562; assay: NCI 60 screen, K-562; conditions: Homo sapiens, K562, Leukemia
Method: as §1

[47] = test system: LOX IMVI; assay: NCI 60 screen, LOX IMVI; conditions: Homo sapiens, Melanoma
Method: as §1

[48] = test system: MCF7; assay: NCI 60 screen, MCF7; conditions: Homo sapiens, Breast
Method: as §1

[49] = test system: ACHN; assay: NCI 60 screen, ACHN; conditions: Homo sapiens, Renal
Method: as §1

[50] = test system: M14; assay: NCI 60 screen, M14; conditions: Homo sapiens, Melanoma
Method: as §1

[51] = test system: A498; assay: NCI 60 screen, A498; conditions: Homo sapiens, Renal
Method: as §1

[52] = test system: HS 578T; assay: NCI 60 screen, HS 578T; conditions: Homo sapiens, Breast
Method: as §1

[53] = test system: OVCAR-4; assay: NCI 60 screen, OVCAR-4; conditions: Homo sapiens, Ovarian
Method: as §1

[54] = test system: MOLT-4; assay: NCI 60 screen, MOLT-4; conditions: Homo sapiens, Leukemia
Method: as §1

[55] = test system: NCI-322M; assay: NCI 60 screen, NCI-322M; conditions: Homo sapiens, Non-Small Cell Lung
Method: as §1

[56] = test system: UACC-257; assay: NCI 60 screen, UACC-257; conditions: Homo sapiens, Melanoma
Method: as §1

[57] = test system: HT29; assay: NCI 60 screen, HT29; conditions: Homo sapiens, HT-29, Colon
Method: as §1

[58] = test system: U251; assay: NCI 60 screen, U251; conditions: Homo sapiens, U-251, CNS
Method: as §1

[59] = test system: COLO 205; assay: NCI 60 screen, COLO 205; conditions: Homo sapiens, Colon
Method: as §1

`O=C(Cc1ccc(/C=C/C(=O)c2ncc[nH]2)cc1)Nc1ccc(F)cc1` [Compound 22, (E)-2-(4-(3-(1H-imidazol-2-yl)-3-oxoprop-1-en-1-yl)phenyl)-N-(4-fluorophenyl)acetamide] showed a GI50 [1] of 1370 nM, a GI50 [2] of 1270 nM and a GI50 [3] of 7890 nM. The GI50 [4] was 7180 nM, the GI50 [5] was 1110 nM and the GI50 [6] was 6060 nM. For the same molecule, the GI50 [7] was 3330 nM, the GI50 [8] was 5430 nM and the GI50 [9] was 6260 nM. The GI50 [10] was 970 nM, the GI50 [11] was 1700 nM and the GI50 [12] was 840 nM. It also gave a GI50 [13] of 1150 nM, a GI50 [14] of 1660 nM and a GI50 [15] of 7470 nM. The GI50 [16] was 4740 nM, the GI50 [17] was 2930 nM and the GI50 [18] was 5080 nM. For the same molecule, the GI50 [19] was 2640 nM, the GI50 [20] was 1910 nM and the GI50 [21] was 7460 nM. The GI50 [22] was 9380 nM, the GI50 [23] was 1110 nM and the GI50 [24] was 1430 nM. For the same molecule, the GI50 [25] was 1190 nM, the GI50 [26] was 4070 nM and the GI50 [27] was 1830 nM. The GI50 [28] was 9110 nM, the GI50 [29] was 5100 nM and the GI50 [30] was 3440 nM. The GI50 [31] was 1720 nM, the GI50 [32] was 1580 nM and the GI50 [33] was 3380 nM. The GI50 [34] was 2100 nM, the GI50 [35] was 2600 nM and the GI50 [36] was 2800 nM. It also gave a GI50 [37] of 7860 nM, a GI50 [38] of 2660 nM and a GI50 [39] of 2640 nM. For the same molecule, the GI50 [40] was 1890 nM, the GI50 [41] was 5920 nM and the GI50 [42] was 6940 nM. It also gave a GI50 [43] of 2730 nM, a GI50 [44] of 9850 nM and a GI50 [45] of 1680 nM. For the same molecule, the GI50 [46] was 1300 nM, the GI50 [47] was 1070 nM and the GI50 [48] was 990 nM. The GI50 [49] was 4820 nM, the GI50 [50] was 5980 nM and the GI50 [51] was 8930 nM. For the same molecule, the GI50 [52] was 2330 nM, the GI50 [53] was 9140 nM and the GI50 [54] was 5740 nM. The GI50 [55] was 3350 nM, the GI50 [56] was 8670 nM and the GI50 [57] was 1150 nM. For the same molecule, the GI50 [58] was 1200 nM and the GI50 [59] was 4540 nM.
